Laboratory results: patent US20030139373A1, “Method for cancer therapy” (priority 2001, published 2003)

Tests used:
[1] = tested on: A549 NSCLC Xenograft; assay: A549 NSCLC xenograft model, efficacy (tumor growth inhibition); assay type: in vivo, mice; conditions: single agent
Description: For implantation in mice, A549 cells were dislodged with trypsin-EDTA, washed with 1×D-PBS, and resuspended in serum-free media. […] Tumors were allowed to establish until they were palpable and of an appropriate tumor volume (based on previous tumorigenicity studies) before initiation of treatment. Animals were randomly assigned to groups according to initial tumor volume, and the day of tumor cell inoculation was considered to be study day 0. […] The solution was then evaporated and lyophilized. […] Efficacy data was graphically represented as the mean tumor volume ±standard error of the mean (SEM). Tumor volumes of treated groups were presented as percentages of tumor volumes of the control groups (%T/C), using the formula: 100×((T-T0)/(C-C0)), where 'T' represented mean tumor volume of a treated group on a specific day during the experiment, 'T0' represented mean tumor volume of the same treated group on the first day of treatment; 'C' represented mean tumor volume of a control group on a specific day during the experiment, and C0' represented mean tumor volume of the same […] 'D' represents the large diameter of the tumor, and 'd' represents the small diameter. In some cases, tumor regression and/or percent change in tumor volume was calculated using the formula: Statistical analysis was determined by the rank sum test (SigmaStat, v.2.0, Jandel Scientific, San Francisco, Calif.).

[2] = A549 NSCLC xenograft model, toxicity (body weight, deaths); conditions: single agent
Description: Female BALB/c nu/nu mice were obtained from Charles River Laboratories (Wilmington, Mass.). The mice were housed in an AALAC approved facility and received standard care in accordance with institutional policy (fully compliant with both NIH and Roche Animal Care and Use Committee guidelines).
Compound II was microprecipitated with an ionic polymer, Eudragit L-100-55, using a solvent extraction method. Eudragit L100-55 (described in USP/NF as “Methacrylic Acid Copolymer”) is an anionic copolymer based on methacrylic acid and ethyl acrylate. The ratio of drug to polymer in the final formulation was 50% w/w Compound II and 50% w/w Eudragit L100-55. For oral administration, the formulated Compound II or pure Eudragit L100-55 (administered to vehicle control groups) was suspended in 0.2% CMC (carboxy-methyl cellulose) solution (Aqualon Hercules, Inc., Parlin, N.J.). The CMC solution was added immediately prior to dosing to animals. Gemzar® (Lilly, Indianapolis, Ind.) was applied to a 40 micron high performance Whatman C-18 column. The column was eluted at 60 ml/min for 50 minutes with water, followed by elution with 40% CH3CN/water until UV clear. The solution was then evaporated and lyophilized.
Weight loss was graphically represented as percent change in mean group body weight, using the formula: […]
where ‘W’ represents mean body weight of the treated group at a particular day, and ‘W0’ represents mean body weight of the same treated group at initiation of treatment.

[3] = tested on: H1299 cells; assay: Tetrazolium dye (MTT) proliferation assay, H1299; assay type: cell-based; conditions: Homo sapiens, NCI-H1299; MTT assay using H1299 cells
Experimental: H1299 cells were obtained from the National Cancer Institute. A549 cells were purchased from ATCC. The cells were grown in a subconfluent condition to maintain a logarithmic growth phase. The cells were dislodged for passage using trypsin-EDTA (0.05% and 0.53 mM, respectively).
Cellular proliferation was evaluated by the tetrazolium dye assay. Cells from exponentially growing cultures were plated at the appropriate seeding density in the optimal medium to give logarithmic growth over the course of the assay. Plates were incubated overnight at 37° C. in a humidified CO2 atmosphere to allow for recovery from trypsinization before beginning the assay. […] The plates were returned to 37° C. and assayed for proliferation by MTT (3-(4,5-dimethyl-thiazole-2-yl)-2,5-diphenyl-2H-tetrazolium bromide at time points that would allow for at least three population doublings in the untreated control cultures. MTT was added to each well to yield a final concentration of 1 mg/ml and the plates were returned to 37° C. for 2.5 hours. Following incubation, the MTT-containing medium was removed by aspiration and the resulting formazan metabolite was solubilized in 50 μl ethanol. Absorbances were read at a wavelength of 570 nm with a 650 nm reference. Percent inhibition was calculated using the formula: [formula]

Nc1ccn([C@@H]2O[C@H](CO)[C@@H](O)C2(F)F)c(=O)n1 [Gemcitabine, gemcitabine]
Tumor Volume (Mean ± SEM) (Day 30) ([1]; G 30 mg/kg IP): 97 ± 15 mm3 | % T/C (Day 47) ([1]; G 30 mg/kg IP): 72% | Tumor Volume (Mean ± SEM) (Day 47) ([1]; G 30 mg/kg IP): 210 ± 44 mm3 | Tumor Volume (Mean ± SEM) (Day 30) ([1]; G 60 mg/kg IP): 111 ± 17 mm3 | % T/C (Day 47) ([1]; G 60 mg/kg IP): 49% | Tumor Volume (Mean ± SEM) (Day 47) ([1]; G 60 mg/kg IP): 188 ± 27 mm3 | Tumor Volume (Mean ± SEM) (Day 30) ([1]; G 120 mg/kg IP): 98 ± 20 mm3 | % T/C (Day 47) ([1]; G 120 mg/kg IP): 61% | Tumor Volume (Mean ± SEM) (Day 47) ([1]; G 120 mg/kg IP): 193 ± 36 mm3 | Drug Related Deaths ([2]; G 30 mg/kg IP): 0% | Drug Related Deaths ([2]; G 60 mg/kg IP): 0% | Drug Related Deaths ([2]; G 120 mg/kg IP): 0% | IC50 [3]: 3.8 nM | IC90 [3]: 6 nM

Cn1cc(C2=C(c3cn(C)c4cc([N+](=O)[O-])ccc34)C(=O)NC2=O)c2ccccc21 [Compound II]
Tumor Volume (Mean ± SEM) (Day 30) ([1]; CII 50 mg/kg PO): 104 ± 18 mm3 | % T/C (Day 47) ([1]; CII 50 mg/kg PO): 50% | Tumor Volume (Mean ± SEM) (Day 47) ([1]; CII 50 mg/kg PO): 217 ± 32 mm3 | Tumor Volume (Mean ± SEM) (Day 30) ([1]; CII 100 mg/kg PO): 148 ± 28 mm3 | % T/C (Day 47) ([1]; CII 100 mg/kg PO): 29% | Tumor Volume (Mean ± SEM) (Day 47) ([1]; CII 100 mg/kg PO): 213 ± 35 mm3 | Tumor Volume (Mean ± SEM) (Day 30) ([1]; CII 200 mg/kg PO): 99 ± 17 mm3 | % T/C (Day 47) ([1]; CII 200 mg/kg PO): 18% | Tumor Volume (Mean ± SEM) (Day 47) ([1]; CII 200 mg/kg PO): 141 ± 21 mm3 | Drug Related Deaths ([2]; CII 50 mg/kg PO): 0% | Drug Related Deaths ([2]; CII 100 mg/kg PO): 0% | Drug Related Deaths ([2]; CII 200 mg/kg PO): 0%
